*1 amine or outer side, *2 acyl side, *3 side chain or, on linkers, in order; H or OH if unused. Where a SMILES comes first, the peptide text is derived from it. Bridges are numbered along the chain shown (N, C = ends). [ ]: non-standard residue; d: D form. The star is where a group is joined. Phe(3-OMe,4-CONHMe) = CNC(=O)c1ccc(C[C@H](N)C(=O)O)cc1OC; X11 = CNC(=O)c1ccc(CCN(CC(=O)[*:2])[*:1])cc1OC; NMePhe(3-Cl) = CN[C@@H](Cc1cccc(Cl)c1)C(=O)O; Tyr(3-F) = N[C@@H](Cc1ccc(O)c(F)c1)C(=O)O; NMeF = CN[C@@H](Cc1ccccc1)C(=O)O; NMeGABA = CN(CCCC(=O)[*:2])[*:1]; CH2CONHtBu = CC(C)(C)NC(=O)C*; NMeL = CN[C@@H](CC(C)C)C(=O)O; Butyl(3S-OH) = C[C@H](O)CC*; NMeV = CN[C@H](C(=O)O)C(C)C; NMeAbu = CC[C@H](NC)C(=O)O; NMeA = CN[C@@H](C)C(=O)O; Piperidide = C1CCN(*)CC1; CH2CMe2OH = CC(C)(O)C*; NBuGly = CCCCNCC(=O)O; Isopentyl = CC(C)CC*; NPrGly = CCCNCC(=O)O; Sar = CNCC(=O)O; tBu = CC(C)(C)*
test: in vitro; settings: human, Caco-2, Caco-2 (cm/sec)

| Structure (SMILES) | Papp |
| --- | --- |
| CCCN1CC(=O)N(C)[C@@H](CC(C)C)C(=O)N[C@@H](COCCC(C)C)C(=O)N(C)[C@@H](Cc2ccccc2)C(=O)N(C)[C@@H](C(C)C)C(=O)N[C@H](C(=O)N2CCCCC2)CC(=O)N[C@H](C(C)C)C(=O)N(C)[C@@H](Cc2ccccc2)C(=O)N[C@@H](COCC(C)(C)O)C(=O)N(C)[C@@H](CC(C)C)C(=O)N[C@@H]([C@@H](C)O)C1=O [AP01] ([dV][NMeF]S(CH2CMe2OH)[NMeL]T[NPrGly][NMeL]S(Isopentyl)[NMeF][NMeV]D-Piperidide; lactam N-11) | 1.4 ×10⁻⁶ cm/s |
| CCCCN1CC(=O)N(C)[C@@H](CC(C)C)C(=O)N[C@H](C(=O)N2CCCCC2)CC(=O)N(C)[C@@H](C)C(=O)N[C@@H](COCC[C@H](C)O)C(=O)N(C)[C@@H](CC(C)C)C(=O)N(C)[C@@H](Cc2cccc(Cl)c2)C(=O)N[C@@H](CC(C)C)C(=O)N(C)[C@@H](Cc2ccccc2)C(=O)N(C)[C@@H](C(C)C)C(=O)N[C@@H]([C@@H](C)O)C1=O [AP103] ([NMeA]S(Butyl(3S-OH))[NMeL][NMePhe(3-Cl)]L[NMeF][NMeV]T[NBuGly][NMeL]D-Piperidide; lactam N-11) | 0.89 ×10⁻⁶ cm/s |
| CC(C)C[C@H]1C(=O)N[C@H](C(=O)N2CCCCC2)CC(=O)N(C)[C@@H](C)C(=O)N[C@@H](Cc2ccc(O)c(F)c2)C(=O)N(C)[C@@H](CC(C)C)C(=O)N(C)[C@@H](CC(C)C)C(=O)N[C@@H](C(C)C)C(=O)N(C)[C@@H](Cc2ccccc2)C(=O)N(C)[C@@H](CC(C)C)C(=O)N[C@@H]([C@@H](C)O)C(=O)N(C)CC(=O)N1C [pd122] ([NMeA][Tyr(3-F)][NMeL][NMeL]V[NMeF][NMeL]T[Sar][NMeL]D-Piperidide; lactam N-11) | 0.46 ×10⁻⁶ cm/s |
| CCCCN1CC(=O)N(C)[C@@H](CC(C)C)C(=O)N[C@@H](COC(C)(C)C)C(=O)N(C)[C@@H](CC(C)C)C(=O)N(C)[C@@H](CC)C(=O)N[C@H](C(=O)N2CCCCC2)CC(=O)N[C@H](CC(C)C)C(=O)N(C)[C@@H](Cc2ccccc2)C(=O)N[C@@H](Cc2ccc(O)cc2)C(=O)N(C)[C@@H](CC(C)C)C(=O)N[C@@H]([C@@H](C)O)C1=O [Compound F02] ([dL][NMeF]Y[NMeL]T[NBuGly][NMeL]S(tBu)[NMeL][NMeAbu]D-Piperidide; lactam N-11) | 0.04 ×10⁻⁶ cm/s |
| CC[C@H](C)[C@@H]1NC(=O)[C@H](CC(C)C)N(C)C(=O)CN(C)C(=O)C[C@@H](C(=O)N2CCCCC2)NC(=O)[C@H](C)N(C)C(=O)[C@H](COC(C)(C)C)NC(=O)[C@H](CC(C)C)N(C)C(=O)[C@H](CC(C)C)N(C)C(=O)CN(C)C(=O)[C@H](Cc2c[nH]c3ccccc23)NC(=O)[C@H](CC(C)C)N(C)C1=O [pd103] ([Sar][NMeL]I[NMeL]W[Sar][NMeL][NMeL]S(tBu)[NMeA]D-Piperidide; lactam N-11) | 0.093 ×10⁻⁶ cm/s |
| CC[C@H](C)[C@@H]1NC(=O)[C@H](CC(C)C)N(C)C(=O)CN(C)C(=O)C[C@@H](C(=O)N2CCCCC2)NC(=O)[C@H](CC(C)C)N(C)C(=O)[C@H](COC(C)(C)C)NC(=O)[C@H](CC(C)C)N(C)C(=O)[C@H](Cc2ccccc2)N(C)C(=O)CN(CCc2ccc(C(=O)NC)c(OC)c2)C(=O)[C@H]([C@@H](C)O)NC(=O)[C@H](CC)N(C)C1=O [AP218] ([Sar][NMeL]I[NMeAbu]T[X11][NMeF][NMeL]S(tBu)[NMeL]D-Piperidide; lactam N-11) | 0.55 ×10⁻⁶ cm/s |
| CCCCN1CC(=O)N(C)[C@@H](CC(C)C)C(=O)N(C)[C@@H](CC(C)C)C(=O)N[C@@H](COC(C)(C)C)C(=O)N(C)[C@@H](CC(C)C)C(=O)N[C@H](C(=O)N2CCCCC2)CC(=O)N(C)CC(=O)N(C)[C@@H](Cc2cccc(Cl)c2)C(=O)N[C@@H](Cc2ccc(C(=O)NC)c(OC)c2)C(=O)N(C)[C@@H](CC(C)C)C(=O)N[C@@H]([C@@H](C)O)C1=O [AP33] ([Sar][NMePhe(3-Cl)][Phe(3-OMe,4-CONHMe)][NMeL]T[NBuGly][NMeL][NMeL]S(tBu)[NMeL]D-Piperidide; lactam N-11) | 0.61 ×10⁻⁶ cm/s |
| CC[C@H](C)[C@@H]1NC(=O)[C@H](CC(C)C)N(C)C(=O)CCCN(C)C(=O)C[C@@H](C(=O)N2CCCCC2)NC(=O)[C@H](CC(C)C)N(C)C(=O)[C@H](CC(C)C)N(C)C(=O)[C@H]([C@@H](C)O)NC(=O)[C@H](CC(C)C)N(C)C(=O)[C@H](COCC(C)(C)O)NC(=O)[C@H](Cc2cccc(Cl)c2)N(C)C(=O)[C@H](Cc2ccccc2)N(C)C1=O [AP04] ([NMeGABA][NMeL]I[NMeF][NMePhe(3-Cl)]S(CH2CMe2OH)[NMeL]T[NMeL][NMeL]D-Piperidide; lactam N-11) | 0.53 ×10⁻⁶ cm/s |
| CCCCN1CC(=O)N(C)[C@@H](Cc2ccccc2)C(=O)N[C@@H](COCC(=O)NC(C)(C)C)C(=O)N(C)[C@@H](CC(C)C)C(=O)N[C@@H]([C@@H](C)O)C(=O)N(CCC)CC(=O)N(C)[C@@H](Cc2ccccc2)C(=O)N(C)[C@@H](CC(C)C)C(=O)N[C@@H](CC(C)C)C(=O)N(C)[C@@H](C)C(=O)N[C@H](C(=O)N2CCCCC2)CC1=O [AP17] ([NBuGly][NMeF]S(CH2CONHtBu)[NMeL]T[NPrGly][NMeF][NMeL]L[NMeA]D-Piperidide; lactam N-11) | 0.72 ×10⁻⁶ cm/s |

Source: patent US20230096766A1, “AMINO ACID HAVING FUNCTIONAL GROUP CAPABLE OF INTERMOLECULAR HYDROGEN BONDING, PEPTIDE COMPOUND CONTAINING SAME AND METHOD FOR PRODUCTION THEREOF” (Chugai Seiyaku Kabushiki Kaisha, priority 2018, published 2023)
